Measurements: the supplement of paper PMC10883282

What was measured:
Experiment in all cases: relative viability vs DMSO control (72 h) (fraction); higher = more viable cells
[1] = test system: RD-ES
Outline: (§1)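 ATPLite readings, expressed as percent growth and averaged over up to triplicate wells, provided relative viability. Before reading, sarcoma cell lines seeded in 384-well plates to reach 80–90% confluence received 2.5 µl of serially diluted compound after 24 h, from source plates of 10 mM to 0.0002 mM. Plates were held 72 h at 37 °C, 5% CO2, with 0.1% DMSO as vehicle and a 5 µM positive control. The data were rescaled to 1 for full and 0 for none.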

[2] = test system: HS729
Outline: as §1

[3] = test system: RD
Outline: as §1

[4] = test system: HT1080
Outline: as §1

[5] = test system: SW684
Outline: as §1

[6] = test system: SW1353
Outline: as §1

[7] = test system: KHOS-240S
Outline: as §1

[8] = test system: SYO-1
Outline: as §1

[9] = test system: KHOS-NP
Outline: as §1

[10] = test system: SW872
Outline: as §1

[11] = test system: SK-LMS-1
Outline: as §1

[12] = test system: G401
Outline: as §1

C#Cc1cccc(Nc2ncnc3cc4c(cc23)OCCOCCOCCO4)c1 [Icotinib]
Conditions	relative viability
[1], 0.00017 µM	0.983
[1], 0.00051 µM	0.998
[1], 0.00152 µM	0.989
[1], 0.00457 µM	1.01
[1], 0.01372 µM	0.991
[1], 0.04115 µM	0.982
[1], 0.1235 µM	0.976
[1], 0.3704 µM	0.991
[1], 1.111 µM	0.973
[1], 3.333 µM	0.977
[1], 10 µM	0.959
[2], 0.00017 µM	1.08
[2], 0.00051 µM	1.091
[2], 0.00152 µM	1.01
[2], 0.00457 µM	1
[2], 0.01372 µM	0.99
[2], 0.04115 µM	0.99
[2], 0.1235 µM	0.97
[2], 0.3704 µM	0.971
[2], 1.111 µM	0.957
[2], 3.333 µM	0.892
[2], 10 µM	0.8227
[3], 0.00017 µM	1.09
[3], 0.00051 µM	1.1
[3], 0.00152 µM	1.13
[3], 0.00457 µM	1.124
[3], 0.01372 µM	1.15
[3], 0.04115 µM	1.08
[3], 0.1235 µM	1.12
[3], 0.3704 µM	1.15
[3], 1.111 µM	1.1
[3], 3.333 µM	1.15
[3], 10 µM	1.14
[4], 0.00017 µM	1.08
[4], 0.00051 µM	1.11
[4], 0.00152 µM	1.09
[4], 0.00457 µM	1.1
[4], 0.01372 µM	1.11
[4], 0.04115 µM	1.08
[4], 0.1235 µM	1.1
[4], 0.3704 µM	1.11
[4], 1.111 µM	1.069
[4], 3.333 µM	1.08
[4], 10 µM	1.06
[5], 0.00017 µM	1.172
[5], 0.00051 µM	1.18
[5], 0.00152 µM	1.2
[5], 0.00457 µM	1.19
[5], 0.01372 µM	1.2
[5], 0.04115 µM	1.18
[5], 0.1235 µM	1.18
[5], 0.3704 µM	1.18
[5], 1.111 µM	1.17
[5], 3.333 µM	1.16
[5], 10 µM	1.13
[6], 0.00017 µM	1.06
[6], 0.00051 µM	1.04
[6], 0.00152 µM	1.03
[6], 0.00457 µM	1.07
[6], 0.01372 µM	1.045
[6], 0.04115 µM	1.01
[6], 0.1235 µM	1.01
[6], 0.3704 µM	0.976
[6], 1.111 µM	0.952
[6], 3.333 µM	0.914
[6], 10 µM	0.847
[7], 0.00017 µM	1.07
[7], 0.00051 µM	1.1
[7], 0.00152 µM	1.1
[7], 0.00457 µM	1.1
[7], 0.01372 µM	1.1
[7], 0.04115 µM	1.09
[7], 0.1235 µM	1.1
[7], 0.3704 µM	1.09
[7], 1.111 µM	1.09
[7], 3.333 µM	1.04
[7], 10 µM	1.03
[8], 0.00017 µM	1.01
[8], 0.00051 µM	1.03
[8], 0.00152 µM	1.01
[8], 0.00457 µM	0.968
[8], 0.01372 µM	0.989
[8], 0.04115 µM	0.979
[8], 0.1235 µM	0.982
[8], 0.3704 µM	0.98
[8], 1.111 µM	0.966
[8], 3.333 µM	0.892
[8], 10 µM	0.855
[9], 0.00017 µM	1.083
[9], 0.00051 µM	1.09
[9], 0.00152 µM	1.08
[9], 0.00457 µM	1.09
[9], 0.01372 µM	1.09
[9], 0.04115 µM	1.09
[9], 0.1235 µM	1.08
[9], 0.3704 µM	1.09
[9], 1.111 µM	1.096
[9], 3.333 µM	1.08
[9], 10 µM	1.07
[10], 0.00017 µM	1.14
[10], 0.00051 µM	1.14
[10], 0.00152 µM	1.11
[10], 0.00457 µM	1.108
[10], 0.01372 µM	1.11
[10], 0.04115 µM	1.09
[10], 0.1235 µM	1.08
[10], 0.3704 µM	1.07
[10], 1.111 µM	1.06
[10], 3.333 µM	1.04
[10], 10 µM	1.03
[11], 0.00017 µM	1.08
[11], 0.00051 µM	1.05
[11], 0.00152 µM	1.07
[11], 0.00457 µM	1.07
[11], 0.01372 µM	1.07
[11], 0.04115 µM	1.06
[11], 0.1235 µM	1.04
[11], 0.3704 µM	1.09
[11], 1.111 µM	1.05
[11], 3.333 µM	1.033
[11], 10 µM	0.998
[12], 0.00017 µM	1.04
[12], 0.00051 µM	1.05
[12], 0.00152 µM	1.04
[12], 0.00457 µM	1.06
[12], 0.01372 µM	1.05
[12], 0.04115 µM	1.05
[12], 0.1235 µM	1.02
[12], 0.3704 µM	1.04
[12], 1.111 µM	1.06
[12], 3.333 µM	1.03
[12], 10 µM	1.02

CCN1CCN(c2ccc(Nc3cc(N(C)C(=O)Nc4c(Cl)c(OC)cc(OC)c4Cl)ncn3)cc2)CC1 [Infigratinib]
Conditions	relative viability
[1], 85 pM	0.972
[1], 0.000254 µM	0.95
[1], 0.00076 µM	0.965
[1], 0.00229 µM	0.998
[1], 0.00686 µM	0.981
[1], 0.02058 µM	0.959
[1], 0.0617 µM	0.957
[1], 0.1852 µM	0.959
[1], 0.5556 µM	0.928
[1], 1.6667 µM	0.802
[1], 5 µM	0.783
[2], 85 pM	1.01
[2], 0.000254 µM	0.934
[2], 0.00076 µM	0.942
[2], 0.00229 µM	0.913
[2], 0.00686 µM	0.866
[2], 0.02058 µM	0.788
[2], 0.0617 µM	0.69
[2], 0.1852 µM	0.635
[2], 0.5556 µM	0.604
[2], 1.6667 µM	0.526
[2], 5 µM	0.525
[3], 85 pM	1.07
[3], 0.000254 µM	1.06
[3], 0.00076 µM	1.11
[3], 0.00229 µM	1.13
[3], 0.00686 µM	1.14
[3], 0.02058 µM	1.12
[3], 0.0617 µM	1.12
[3], 0.1852 µM	1.14
[3], 0.5556 µM	1.12
[3], 1.6667 µM	1.13
[3], 5 µM	1.11
[4], 85 pM	1.03
[4], 0.000254 µM	1.07
[4], 0.00076 µM	1.072
[4], 0.00229 µM	1.04
[4], 0.00686 µM	1.053
[4], 0.02058 µM	1.067
[4], 0.0617 µM	1.04
[4], 0.1852 µM	1.06
[4], 0.5556 µM	1.087
[4], 1.6667 µM	1.11
[4], 5 µM	1.01
[5], 85 pM	1.18
[5], 0.000254 µM	1.19
[5], 0.00076 µM	1.19
[5], 0.00229 µM	1.14
[5], 0.00686 µM	1.18
[5], 0.02058 µM	1.18
[5], 0.0617 µM	1.16
[5], 0.1852 µM	1.17
[5], 0.5556 µM	1.15
[5], 1.6667 µM	1.22
[5], 5 µM	1.14
[6], 85 pM	1.06
[6], 0.000254 µM	1.069
[6], 0.00076 µM	1.04
[6], 0.00229 µM	1.01
[6], 0.00686 µM	0.98
[6], 0.02058 µM	0.914
[6], 0.0617 µM	0.861
[6], 0.1852 µM	0.861
[6], 0.5556 µM	0.861
[6], 1.6667 µM	0.8437
[6], 5 µM	0.741
[7], 85 pM	1.058
[7], 0.000254 µM	1.11
[7], 0.00076 µM	1.08
[7], 0.00229 µM	1.06
[7], 0.00686 µM	1.06
[7], 0.02058 µM	0.986
[7], 0.0617 µM	0.926
[7], 0.1852 µM	0.932
[7], 0.5556 µM	0.907
[7], 1.6667 µM	0.874
[7], 5 µM	0.835
[8], 85 pM	1.02
[8], 0.000254 µM	0.973
[8], 0.00076 µM	0.975
[8], 0.00229 µM	0.901
[8], 0.00686 µM	0.827
[8], 0.02058 µM	0.655
[8], 0.0617 µM	0.626
[8], 0.1852 µM	0.63
[8], 0.5556 µM	0.596
[8], 1.6667 µM	0.623
[8], 5 µM	0.606
[9], 85 pM	1.07
[9], 0.000254 µM	1.12
[9], 0.00076 µM	1.09
[9], 0.00229 µM	1.06
[9], 0.00686 µM	1.08
[9], 0.02058 µM	1.085
[9], 0.0617 µM	1.08
[9], 0.1852 µM	1.05
[9], 0.5556 µM	1.06
[9], 1.6667 µM	1.08
[9], 5 µM	1.08
[10], 85 pM	1.09
[10], 0.000254 µM	1.097
[10], 0.00076 µM	1.09
[10], 0.00229 µM	1.06
[10], 0.00686 µM	1.03
[10], 0.02058 µM	1.03
[10], 0.0617 µM	1.06
[10], 0.1852 µM	1.04
[10], 0.5556 µM	1.01
[10], 1.6667 µM	0.882
[10], 5 µM	0.839
[11], 85 pM	1.12
[11], 0.000254 µM	1.11
[11], 0.00076 µM	1.08
[11], 0.00229 µM	1.13
[11], 0.00686 µM	1.1
[11], 0.02058 µM	1.06
[11], 0.0617 µM	1.08
[11], 0.1852 µM	1.11
[11], 0.5556 µM	1.08
[11], 1.6667 µM	1.04
[11], 5 µM	0.952
[12], 85 pM	1.048
[12], 0.000254 µM	1.039
[12], 0.00076 µM	1.02
[12], 0.00229 µM	0.9703
[12], 0.00686 µM	0.952
[12], 0.02058 µM	0.8266
[12], 0.0617 µM	0.749
[12], 0.1852 µM	0.649
[12], 0.5556 µM	0.59
[12], 1.6667 µM	0.515
[12], 5 µM	0.33
